Measurements published in EP4483954A1 (Masarykova Univerzita, priority 2023, dated 2025).

Columns and labels:
Format in all cases: biochemical
CLK2 (h) = biological target: T1, CLK2 (h) (Homo sapiens, UniProt P49760); assay: radiometric kinase assay (KinaseProfiler, Eurofins), CLK2; details: in vitro radiometric kinase assay, tested at 1 nM to 10 000 nM, no pre-incubation; read-out: inhibitory activities (IC50 values) CLK2
T1 construct: purchased Eurofins (KinaseProfiler)
Method: (§1) The compounds were profiled in the radiometric assays (KinaseProfiler, Eurofins).
(§2) Briefly, kinases were diluted in the buffer shown below prior to addition to the reaction mix: • CDKL3, TAF1L: 20 mM Tris/HCl pH 8.5, 0.2 mM EDTA, 0.1% β-mercaptoethanol, 0.01% Brij-35, 5% glycerol, 1 mg/ml BSA; • Haspin: 15 mM MOPS, 0.75 mM EDTA, 0.0075% Brij-35, 3.75% Glycerol, 150 mM NaCl, 0.1% β-mercaptoethanol, 1 mg/mLBSA; • CDKL4, CLK2, PIM1, TRB2: […], 1 mM EDTA, 0.01% Brij-35, 5% Glycerol, 0.1% β-mercaptoethanol, 1 mg/mL BSA.
(§3) All compounds were prepared to 50x final assay concentration in 100% DMSO. This working stock of the compound was added to the assay well as the first component in the reaction, followed by the remaining components as detailed in the general assay protocols below. There was no pre-incubation step between the compound and the kinase prior to initiation of the reaction.
CLK2 (h) was incubated with 8 mM MOPS pH 7.0, 0.2 mM EDTA, 20 µM […](p)EDEEE (SEQ ID NO. 2), 10 mM magnesium acetate and γ-^33P-ATP (specific activity and concentration as required). The reaction was initiated by the addition of the Mg/ATP mix. After incubation for 40 minutes at room temperature, the reaction was stopped by the addition of phosphoric acid to a concentration of 0.5%. An aliquot of the reaction was then spotted onto a filter and washed four times for 4 minutes in 0.425% phosphoric acid and once in methanol prior to drying and scintillation counting.
(§4) Kinase activity data were expressed as the percent remaining kinase activity in tested samples compared to the vehicle (DMSO) reactions. The compounds were tested at the following concentrations: 1 nM, 3 nM, 10 nM, 30 nM, 100 nM, 300 nM, 1000 nM, 3000 nM, and 10 000 nM; IC50 values and curve fits were then obtained.

TAF1L(h) = biological target: T2, TAF1L(h) (Homo sapiens, UniProt Q8IZX4); assay: radiometric kinase assay (KinaseProfiler, Eurofins), TAF1L; details: in vitro radiometric kinase assay, tested at 1 nM to 10 000 nM, no pre-incubation; read-out: inhibitory activities (IC50 values) TAF1L
T2 construct: purchased Eurofins (KinaseProfiler)
T2 sequence (Q8IZX4 whole entry): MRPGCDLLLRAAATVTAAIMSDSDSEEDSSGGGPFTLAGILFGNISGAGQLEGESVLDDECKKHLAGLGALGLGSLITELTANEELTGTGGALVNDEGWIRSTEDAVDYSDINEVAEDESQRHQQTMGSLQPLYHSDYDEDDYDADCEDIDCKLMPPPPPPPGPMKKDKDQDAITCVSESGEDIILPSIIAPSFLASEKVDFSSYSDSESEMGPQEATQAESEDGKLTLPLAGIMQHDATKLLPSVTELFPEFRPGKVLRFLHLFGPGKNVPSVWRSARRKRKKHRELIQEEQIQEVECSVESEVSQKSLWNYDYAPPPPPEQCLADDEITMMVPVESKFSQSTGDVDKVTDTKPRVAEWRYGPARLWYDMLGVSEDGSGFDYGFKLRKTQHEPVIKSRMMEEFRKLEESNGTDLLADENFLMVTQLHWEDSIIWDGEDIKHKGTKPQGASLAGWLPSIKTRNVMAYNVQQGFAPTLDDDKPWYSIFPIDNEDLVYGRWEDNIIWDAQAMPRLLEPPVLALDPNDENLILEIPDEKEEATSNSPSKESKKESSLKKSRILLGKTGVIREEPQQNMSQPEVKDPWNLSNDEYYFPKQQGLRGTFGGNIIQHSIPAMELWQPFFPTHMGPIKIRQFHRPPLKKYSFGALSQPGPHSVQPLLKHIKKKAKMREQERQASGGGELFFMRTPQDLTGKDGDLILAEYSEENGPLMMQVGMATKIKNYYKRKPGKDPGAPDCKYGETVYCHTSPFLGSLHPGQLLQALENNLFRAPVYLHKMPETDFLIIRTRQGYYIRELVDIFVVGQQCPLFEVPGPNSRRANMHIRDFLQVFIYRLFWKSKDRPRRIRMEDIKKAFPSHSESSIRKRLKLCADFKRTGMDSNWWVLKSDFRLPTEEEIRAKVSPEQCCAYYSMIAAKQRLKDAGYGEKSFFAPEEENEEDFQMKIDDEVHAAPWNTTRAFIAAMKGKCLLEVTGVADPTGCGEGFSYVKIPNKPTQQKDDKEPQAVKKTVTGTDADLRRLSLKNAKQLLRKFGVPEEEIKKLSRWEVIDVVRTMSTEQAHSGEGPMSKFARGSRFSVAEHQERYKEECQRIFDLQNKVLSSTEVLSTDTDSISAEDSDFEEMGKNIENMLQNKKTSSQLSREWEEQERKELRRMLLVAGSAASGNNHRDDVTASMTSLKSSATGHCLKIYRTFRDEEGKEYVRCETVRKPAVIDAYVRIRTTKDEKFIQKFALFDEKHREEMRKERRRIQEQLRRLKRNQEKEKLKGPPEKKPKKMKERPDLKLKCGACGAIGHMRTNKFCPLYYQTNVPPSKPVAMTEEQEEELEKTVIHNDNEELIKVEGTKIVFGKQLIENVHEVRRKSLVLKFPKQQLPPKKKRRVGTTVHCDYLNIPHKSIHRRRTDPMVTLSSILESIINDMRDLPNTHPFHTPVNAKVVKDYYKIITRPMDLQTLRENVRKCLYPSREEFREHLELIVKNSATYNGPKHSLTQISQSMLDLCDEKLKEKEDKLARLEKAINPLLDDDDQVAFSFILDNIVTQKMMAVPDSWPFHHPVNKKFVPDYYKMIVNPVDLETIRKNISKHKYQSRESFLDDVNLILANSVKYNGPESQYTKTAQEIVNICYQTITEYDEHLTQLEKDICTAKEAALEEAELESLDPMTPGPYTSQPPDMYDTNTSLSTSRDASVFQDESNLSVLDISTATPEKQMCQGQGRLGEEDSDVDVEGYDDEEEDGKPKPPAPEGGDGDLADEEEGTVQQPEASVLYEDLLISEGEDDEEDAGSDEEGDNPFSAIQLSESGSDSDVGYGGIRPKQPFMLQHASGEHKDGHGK
Method: as §1, §2, §3
(§5) TAF1L(h) was incubated with 20 mM Tris/HCl pH 8.5, 0.2 mM EDTA, 250 µM RRRFRPASPLRGPPK (SEQ ID NO. 1), 10 mM magnesium acetate and γ-^33P-ATP (specific activity and concentration as required). The reaction was initiated by the addition of the Mg/ATP mix. After incubation for 120 minutes at room temperature, the reaction was stopped by the addition of phosphoric acid to a concentration of 0.5%. An aliquot of the stopped reaction was spotted onto a filter and washed four times for 4 minutes in 0.425% phosphoric acid and once in methanol prior to drying and scintillation counting.
as §4

PIM1 (h) = biological target: T3, PIM1 (h) (Homo sapiens, UniProt P11309); assay: radiometric kinase assay (KinaseProfiler, Eurofins), PIM1; details: in vitro radiometric kinase assay, tested at 1 nM to 10 000 nM, no pre-incubation; read-out: inhibitory activities (IC50 values) PIM1
T3 construct: purchased Eurofins (KinaseProfiler)
T3 sequence (P11309 whole entry): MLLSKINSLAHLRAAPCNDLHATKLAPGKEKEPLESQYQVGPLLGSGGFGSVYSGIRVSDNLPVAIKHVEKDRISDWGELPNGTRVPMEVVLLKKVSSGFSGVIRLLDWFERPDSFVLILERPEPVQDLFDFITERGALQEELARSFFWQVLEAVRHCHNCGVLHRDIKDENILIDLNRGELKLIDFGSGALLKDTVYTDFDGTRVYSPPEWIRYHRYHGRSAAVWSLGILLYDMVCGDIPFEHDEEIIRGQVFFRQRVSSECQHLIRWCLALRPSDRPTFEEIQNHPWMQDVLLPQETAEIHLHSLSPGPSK
Method: as §1, §2, §3
PIM1 (h) was incubated with 8 mM MOPS pH 7.0, 0.2 mM EDTA, 100 µM KKRNRTLTV (SEQ ID NO. 4), 10 mM magnesium acetate and γ-^33P-ATP (specific activity and concentration as required). The reaction was initiated by the addition of the Mg/ATP mix. After incubation for 40 minutes at room temperature, the reaction was stopped by the addition of phosphoric acid to a concentration of 0.5%. An aliquot of the reaction was then spotted onto a filter and washed four times for 4 minutes in 0.425% phosphoric acid and once in methanol prior to drying and scintillation counting.
as §4

CDKL4(h) = biological target: T4, CDKL4(h) (Homo sapiens, UniProt Q5MAI5); assay: radiometric kinase assay (KinaseProfiler, Eurofins), CDKL4; details: in vitro radiometric kinase assay, tested at 1 nM to 10 000 nM, no pre-incubation; read-out: inhibitory activities (IC50 values) CDKL4
T4 construct: purchased Eurofins (KinaseProfiler)
T4 sequence (Q5MAI5 whole entry): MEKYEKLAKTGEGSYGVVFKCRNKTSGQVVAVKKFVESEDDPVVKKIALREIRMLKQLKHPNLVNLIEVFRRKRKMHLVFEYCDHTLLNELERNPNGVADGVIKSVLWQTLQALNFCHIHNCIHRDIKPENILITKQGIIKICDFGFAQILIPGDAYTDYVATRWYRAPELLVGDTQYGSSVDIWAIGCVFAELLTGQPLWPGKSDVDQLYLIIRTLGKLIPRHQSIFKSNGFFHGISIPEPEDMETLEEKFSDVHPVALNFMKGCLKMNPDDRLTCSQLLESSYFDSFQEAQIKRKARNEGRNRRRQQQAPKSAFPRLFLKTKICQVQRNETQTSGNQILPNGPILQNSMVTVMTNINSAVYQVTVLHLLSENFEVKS
Method: as §1, §2, §3
as §5, with “CDKL4(h) was” for “TAF1L(h) was”, “with 8” for “with 20”, “mM MOPS” for “mM Tris/HCl”, “pH 7.0,” for “pH 8.5,”
as §4

TRB2(h) = biological target: T5, TRB2(h) (Homo sapiens, UniProt Q92519); assay: radiometric kinase assay (KinaseProfiler, Eurofins), TRB2; details: in vitro radiometric kinase assay, tested at 1 nM to 10 000 nM, no pre-incubation; read-out: inhibitory activities (IC50 values) TRB2
T5 construct: purchased Eurofins (KinaseProfiler)
T5 sequence (Q92519 1-343): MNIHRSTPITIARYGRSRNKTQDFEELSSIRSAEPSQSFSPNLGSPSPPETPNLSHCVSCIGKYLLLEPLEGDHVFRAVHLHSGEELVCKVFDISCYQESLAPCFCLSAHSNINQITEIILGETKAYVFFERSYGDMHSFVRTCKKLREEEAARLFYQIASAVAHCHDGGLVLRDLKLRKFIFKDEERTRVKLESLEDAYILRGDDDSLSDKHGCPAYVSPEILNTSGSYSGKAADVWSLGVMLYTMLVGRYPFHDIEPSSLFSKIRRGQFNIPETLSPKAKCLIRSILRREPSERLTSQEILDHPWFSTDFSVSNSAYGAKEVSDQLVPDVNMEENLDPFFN
Method: as §1, §2, §3
as §5, with “TRB2(h) was” for “TAF1L(h) was”, “with 8” for “with 20”, “mM MOPS” for “mM Tris/HCl”, “pH 7.0,” for “pH 8.5,”
as §4

T1 sequence (P49760 whole entry): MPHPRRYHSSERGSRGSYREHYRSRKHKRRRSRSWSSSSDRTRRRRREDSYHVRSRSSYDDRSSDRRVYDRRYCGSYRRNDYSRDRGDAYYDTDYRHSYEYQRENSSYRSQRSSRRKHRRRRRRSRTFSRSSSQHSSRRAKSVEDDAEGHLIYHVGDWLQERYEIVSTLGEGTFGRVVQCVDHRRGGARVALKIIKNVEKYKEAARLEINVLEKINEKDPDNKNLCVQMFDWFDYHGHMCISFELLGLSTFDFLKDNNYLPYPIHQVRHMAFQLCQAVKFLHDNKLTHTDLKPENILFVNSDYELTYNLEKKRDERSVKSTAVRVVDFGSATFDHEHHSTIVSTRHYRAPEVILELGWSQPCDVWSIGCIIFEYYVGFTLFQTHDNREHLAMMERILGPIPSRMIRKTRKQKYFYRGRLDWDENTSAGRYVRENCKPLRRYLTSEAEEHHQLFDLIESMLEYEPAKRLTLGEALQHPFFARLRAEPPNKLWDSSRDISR

Cn1ccc(-c2ccc3scc(-c4ccncc4)c3n2)n1 [Preparative Example 86, 5-(1-methyl-1H-pyrazol-3-yl)-3-(pyridin-4-yl)thieno[3,2-b]pyridine]
IC50 (CLK2 (h)): 3 to 10 µM
IC50 (TAF1L(h)): 500 to 3000 nM
IC50 (PIM1 (h)): 3 to 10 µM
IC50 (CDKL4(h)): 3000 to 10000 nM
IC50 (TRB2(h)): 3000 to 10000 nM

Cn1cc(-c2ccc3scc(-c4ccnnc4)c3n2)cn1 [Preparative Example 40, 5-(1-methyl-1H-pyrazol-4-yl)-3-(pyridazin-4-yl)thieno[3,2-b]-pyridine]
IC50 (CLK2 (h)): 3 to 10 µM
IC50 (TAF1L(h)): 100 to 499 nM
IC50 (PIM1 (h)): 0.5 to 3 µM
IC50 (CDKL4(h)): 500 to 3000 nM
IC50 (TRB2(h)): 500 to 3000 nM

Cn1cncc1-c1ccc2scc(-c3ccncc3)c2n1 [Preparative Example 91, 5-(1-methyl-1H-imidazol-5-yl)-3-(pyridin-4-yl)thieno[3,2-b]pyridine]
IC50 (CLK2 (h)): 0.5 to 3 µM
IC50 (TAF1L(h)): 100 to 499 nM
IC50 (PIM1 (h)): 0.1 to 0.499 µM
IC50 (CDKL4(h)): 500 to 3000 nM
IC50 (TRB2(h)): 500 to 3000 nM

Cn1cc(-c2ccc3scc(C(=O)c4ccccc4)c3n2)cn1 [Preparative Example 73, (5-(1-methyl-1H-pyrazol-4-yl)thieno[3,2-b]pyridin-3-yl)(phenyl)-methanone]
IC50 (CLK2 (h)): 3 to 10 µM
IC50 (TAF1L(h)): 3000 to 10000 nM
IC50 (PIM1 (h)): 3 to 10 µM
IC50 (CDKL4(h)): 3000 to 10000 nM
IC50 (TRB2(h)): 3000 to 10000 nM

Cn1ncc(-c2ccc3scc(-c4ccncc4)c3n2)c1CC1CC1 [Preparative Example 82, 5-(5-(cyclopropylmethyl)-1-methyl-1H-pyrazol-4-yl)-3-(pyridin-4-yl)thieno[3,2-b]pyridine]
IC50 (CLK2 (h)): 0.5 to 3 µM
IC50 (TAF1L(h)): 500 to 3000 nM
IC50 (PIM1 (h)): 0.02 to 0.099 µM
IC50 (CDKL4(h)): 500 to 3000 nM
IC50 (TRB2(h)): 100 to 499 nM

Cn1cc(-c2ccc3scc(-c4ccnc(F)c4)c3n2)cn1 [Preparative Example 22, 3-(2-fluoropyridin-4-yl)-5-(1-methyl-1H-pyrazol-4-yl)thieno[3,2-b]pyridine]
IC50 (CLK2 (h)): 3 to 10 µM
IC50 (TAF1L(h)): 100 to 499 nM
IC50 (PIM1 (h)): 0.1 to 0.499 µM
IC50 (CDKL4(h)): 100 to 499 nM
IC50 (TRB2(h)): 100 to 499 nM

c1ccc(-c2csc3ccc(-c4cnoc4)nc23)cc1 [Preparative Example 124, 4-(3-phenylthieno[3,2-b]pyridin-5-yl)isoxazole]
IC50 (CLK2 (h)): 3 to 10 µM
IC50 (TAF1L(h)): 3000 to 10000 nM
IC50 (PIM1 (h)): 3 to 10 µM
IC50 (CDKL4(h)): 3000 to 10000 nM
IC50 (TRB2(h)): 3000 to 10000 nM

COc1cc(-c2ccn(C)n2)nc2c(-c3ccncc3)csc12 [Preparative Example 165, 7-methoxy-5-(1-methyl-1H-pyrazol-3-yl)-3-(pyridin-4-yl)thieno[3,2-b]pyridine]
IC50 (CLK2 (h)): 3 to 10 µM
IC50 (TAF1L(h)): 500 to 3000 nM
IC50 (PIM1 (h)): 3 to 10 µM
IC50 (CDKL4(h)): 500 to 3000 nM
IC50 (TRB2(h)): 500 to 3000 nM

Fc1cc(-c2ccc3scc(-c4ccccc4)c3n2)cc(F)c1F [Preparative Example 122, 3-phenyl-5-(3,4,5-trifluorophenyl)thieno[3,2-b]pyridine]
IC50 (CLK2 (h)): 3 to 10 µM
IC50 (TAF1L(h)): 3000 to 10000 nM
IC50 (PIM1 (h)): 3 to 10 µM
IC50 (CDKL4(h)): 3000 to 10000 nM
IC50 (TRB2(h)): 3000 to 10000 nM
